The source of these data is patent publication US20260193264A1, “BENZOYPARAZINE PYRAZINES AND THEIR USES” (FOGHORN THERAPEUTICS INC., priority 2022, published 2026).

SMILES strings stand for the structures. A value given as a limit tells only on which side of the number the result lay.

Test [1] concerns the target T1, HiBiT-BRM fusion protein in stable HeLa cell line (Homo sapiens, UniProt P51531).
T1 construct: expressed in transfected cells
Put plainly: HiBiT-BRM cell-based degradation assay (Nano-Glo HiBiT Lytic Detection, 24 h). On the set-up: DC50: scale not given here. The following applies: HeLa HiBiT-BRM cells; for DC50: read-out: BRM HiBit Degradation IC50; for BRM HiBit Degradation Maximum (%): top dose 30 μM. As for the experimental part: (§1) Procedure: A stable HeLa cell line expressing HiBiT-BRM was generated. On day 0, 5000 cells were seeded in 40 μL of media into each well of 384-well cell culture plates. On day 1, cells were treated with 120 nL DMSO or 120 nL of 3-fold serially DMSO-diluted compounds (10 points in duplicate with 30 μM as final top dose). Subsequently plates were incubated for 24 h in a standard tissue culture incubator and equilibrated at room temperature for 15 minutes. Nano-Glo HiBiT Lytic Detection System (Promega N3050) reagent was freshly prepared and 20 ul was added to each well. Upon addition of this LgBit-containing reagent, the HiBiT and LgBiT proteins associate to form the luminescent NanoBiT luciferase. The plates were shaken for 10 minutes at room temperature and the bioluminescence read using an EnVision plate reader (PerkinElmer).
The degradation % was calculated using the following formula: % degradation=100%−100%×(Lumsample−LumLC)/(LumHC−LumLC). DMSO treated cells are employed as High Control (HC) and 2 μM of a known BRM/BRG1 degrader standard treated cells are employed as Low Control (LC).
In general terms: The HiBiT peptide binds its large partner to form an active luciferase.

The target in test [2] is T2, HiBit-BRG1 fusion protein in stable HeLa cell line expressing HiBit-BRG1 and LgBit (Homo sapiens, UniProt P51532).
T2 construct: expressed in transfected cells
T2 sequence (P51532 whole entry, the tested form may be a part): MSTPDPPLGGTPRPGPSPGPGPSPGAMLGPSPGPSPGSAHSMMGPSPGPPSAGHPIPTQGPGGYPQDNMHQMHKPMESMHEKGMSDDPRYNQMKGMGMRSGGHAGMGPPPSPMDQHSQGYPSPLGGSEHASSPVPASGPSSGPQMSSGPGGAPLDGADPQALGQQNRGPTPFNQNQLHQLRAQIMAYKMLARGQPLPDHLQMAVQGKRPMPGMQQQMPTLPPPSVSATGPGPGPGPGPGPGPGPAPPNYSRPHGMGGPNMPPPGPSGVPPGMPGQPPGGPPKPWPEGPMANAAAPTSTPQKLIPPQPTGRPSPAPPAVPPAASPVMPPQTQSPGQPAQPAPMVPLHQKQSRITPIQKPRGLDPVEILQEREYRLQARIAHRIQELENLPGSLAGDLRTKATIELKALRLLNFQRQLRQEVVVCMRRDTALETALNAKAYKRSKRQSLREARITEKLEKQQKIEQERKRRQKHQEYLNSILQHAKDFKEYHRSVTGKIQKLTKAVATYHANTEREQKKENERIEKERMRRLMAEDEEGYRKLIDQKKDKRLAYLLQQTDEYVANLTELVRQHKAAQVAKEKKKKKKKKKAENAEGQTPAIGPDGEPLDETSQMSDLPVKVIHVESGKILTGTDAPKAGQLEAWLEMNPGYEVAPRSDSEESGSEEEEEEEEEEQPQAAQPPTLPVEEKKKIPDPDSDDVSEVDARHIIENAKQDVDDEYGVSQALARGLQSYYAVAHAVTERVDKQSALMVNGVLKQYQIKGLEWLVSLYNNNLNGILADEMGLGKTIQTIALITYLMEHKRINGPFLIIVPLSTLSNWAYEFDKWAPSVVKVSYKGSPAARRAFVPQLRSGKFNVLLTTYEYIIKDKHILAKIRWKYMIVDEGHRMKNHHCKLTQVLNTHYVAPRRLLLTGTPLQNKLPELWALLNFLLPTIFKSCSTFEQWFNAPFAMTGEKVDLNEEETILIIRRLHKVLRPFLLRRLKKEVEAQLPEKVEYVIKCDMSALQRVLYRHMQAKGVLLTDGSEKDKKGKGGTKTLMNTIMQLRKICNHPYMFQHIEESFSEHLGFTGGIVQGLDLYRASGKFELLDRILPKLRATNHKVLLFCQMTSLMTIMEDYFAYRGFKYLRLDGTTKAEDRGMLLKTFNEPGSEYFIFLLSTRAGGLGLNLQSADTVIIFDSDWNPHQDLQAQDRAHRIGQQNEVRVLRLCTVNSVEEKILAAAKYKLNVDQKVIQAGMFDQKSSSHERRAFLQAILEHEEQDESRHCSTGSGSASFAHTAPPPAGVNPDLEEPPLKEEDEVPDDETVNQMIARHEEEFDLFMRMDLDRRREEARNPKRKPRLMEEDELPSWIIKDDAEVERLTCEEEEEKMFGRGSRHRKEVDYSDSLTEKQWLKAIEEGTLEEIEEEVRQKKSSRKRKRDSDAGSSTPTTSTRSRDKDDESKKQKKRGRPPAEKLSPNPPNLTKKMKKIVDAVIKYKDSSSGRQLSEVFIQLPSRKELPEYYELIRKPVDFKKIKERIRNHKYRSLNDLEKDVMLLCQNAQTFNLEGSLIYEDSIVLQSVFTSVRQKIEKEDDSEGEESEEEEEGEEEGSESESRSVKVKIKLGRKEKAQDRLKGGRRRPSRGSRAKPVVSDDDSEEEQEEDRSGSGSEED
Put plainly: HiBiT-BRG1 cell-based degradation assay (Nano-Glo HiBiT, 24 h). The following applies: HeLa HiBit-BRG1/LgBit cells; for DC50: read-out: BRMG1 HiBit Degradation IC50; for Dmax: top dose 30 μM, read-out: BRG1 HiBit Degradation Maximum (%). As for the experimental part:
as §1, with “On day 1, cells were treated with 120 nL DMSO or 120 nL of 3-fold serially DMSO-diluted compounds (10 points in duplicate with 30 μM as final top dose).” left out, “(PerkinElmer). For measurement of BRG1 degradation, a stable HeLa cell line expressing HiBit-BRG1 and LgBit was generated. The same protocol as above was then followed. The degradation % was calculated using the following formula: % degradation=100%−100%×(Lumsample−LumLC)/(LumHC−LumLC). DMSO treated cells are employed as High Control (HC) and 2 μM of a known BRM/BRG1 degrader standard treated cells are employed as Low Control (LC).” for “(PerkinElmer).”

T1 sequence (P51531 whole entry, the tested form may be a part): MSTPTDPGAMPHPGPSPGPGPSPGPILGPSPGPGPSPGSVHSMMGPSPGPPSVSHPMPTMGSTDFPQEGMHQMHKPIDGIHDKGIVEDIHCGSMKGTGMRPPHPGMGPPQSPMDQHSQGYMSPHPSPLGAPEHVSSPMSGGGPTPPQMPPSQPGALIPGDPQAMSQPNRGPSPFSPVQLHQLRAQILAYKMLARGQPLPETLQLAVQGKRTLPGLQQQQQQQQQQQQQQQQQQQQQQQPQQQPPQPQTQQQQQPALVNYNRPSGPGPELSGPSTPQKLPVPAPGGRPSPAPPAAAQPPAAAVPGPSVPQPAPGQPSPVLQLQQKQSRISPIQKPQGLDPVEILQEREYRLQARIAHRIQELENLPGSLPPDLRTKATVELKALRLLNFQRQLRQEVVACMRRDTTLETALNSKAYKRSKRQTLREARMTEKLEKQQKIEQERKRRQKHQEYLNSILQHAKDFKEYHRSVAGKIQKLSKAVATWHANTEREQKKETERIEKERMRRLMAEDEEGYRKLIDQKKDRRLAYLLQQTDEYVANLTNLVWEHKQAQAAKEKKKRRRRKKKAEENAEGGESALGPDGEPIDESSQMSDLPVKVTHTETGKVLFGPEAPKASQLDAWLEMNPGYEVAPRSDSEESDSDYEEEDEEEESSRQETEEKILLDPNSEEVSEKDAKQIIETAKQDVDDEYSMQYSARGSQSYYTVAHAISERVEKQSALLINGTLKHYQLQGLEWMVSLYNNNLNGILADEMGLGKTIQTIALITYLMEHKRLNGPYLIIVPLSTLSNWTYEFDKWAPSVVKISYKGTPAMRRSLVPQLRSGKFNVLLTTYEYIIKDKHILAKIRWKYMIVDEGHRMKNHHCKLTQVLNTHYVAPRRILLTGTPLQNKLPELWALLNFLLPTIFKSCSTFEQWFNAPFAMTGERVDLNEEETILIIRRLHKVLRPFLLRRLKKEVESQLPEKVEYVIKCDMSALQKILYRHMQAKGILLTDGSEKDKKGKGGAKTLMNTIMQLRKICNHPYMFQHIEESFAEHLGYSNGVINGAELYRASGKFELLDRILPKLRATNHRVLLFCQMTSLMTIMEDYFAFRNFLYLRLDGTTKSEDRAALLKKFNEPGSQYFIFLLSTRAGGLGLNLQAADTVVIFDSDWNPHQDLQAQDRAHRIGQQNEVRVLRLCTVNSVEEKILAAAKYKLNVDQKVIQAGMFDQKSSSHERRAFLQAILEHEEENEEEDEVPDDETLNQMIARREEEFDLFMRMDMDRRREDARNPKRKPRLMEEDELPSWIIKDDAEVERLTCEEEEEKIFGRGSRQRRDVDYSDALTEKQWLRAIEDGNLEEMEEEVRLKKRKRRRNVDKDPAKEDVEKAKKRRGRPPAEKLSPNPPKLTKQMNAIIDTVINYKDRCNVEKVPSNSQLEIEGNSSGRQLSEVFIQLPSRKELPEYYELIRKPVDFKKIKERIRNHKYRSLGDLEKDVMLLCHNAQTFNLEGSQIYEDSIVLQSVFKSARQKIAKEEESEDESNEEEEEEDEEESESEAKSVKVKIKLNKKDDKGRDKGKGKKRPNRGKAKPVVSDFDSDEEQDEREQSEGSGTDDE

For `Cc1ncsc1-c1ccc([C@H](C)NC(=O)[C@@H]2C[C@@H](O)CN2C(=O)[C@H](C(C)C)n2cc(C3CC4(C3)CN(c3ccc5nnc(-c6ccccc6O)cc5c3)C4)nn2)cc1` [Compound 204, (2S,4R)-4-hydroxy-1-((S)-2-(4-(2-(3-(2-hydroxyphenyl)cinnolin-6-yl)-2-azaspiro[3.3]heptan-6-yl)-1H-1,2,3-triazol-1-yl)-3-methylbutanoyl)-N-((S)-1-(4-(4-methylthiazol-5-yl)phenyl)ethyl)pyrrolidine-2-carboxamide], in test [1], the DC50 is under 10 nM and the “BRM HiBit Degradation Maximum (%)” value is reported as “A (“A” indicates maximum degradation ≥75%)”. Besides, in test [2], the DC50 is under 10 nM and the Dmax was over 75%.
On to `Cc1cc(N2CCC(c3ccc4cc(-c5ccccc5O)nnc4c3)CC2)ncc1-c1cc([C@H](C(=O)N2C[C@H](O)C[C@H]2C(=O)N[C@@H](C)c2ccc(-c3scnc3C)cc2)C(C)C)on1` [Compound 81, (2S,4R)-4-hydroxy-1-((R)-2-(3-(6-(4-(3-(2-hydroxyphenyl)cinnolin-7-yl)piperidin-1-yl)-4-methylpyridin-3-yl)isoxazol-5-yl)-3-methylbutanoyl)-N-((S)-1-(4-(4-methylthiazol-5-yl)phenyl)ethyl)pyrrolidine-2-carboxamide], for which, in test [1], the DC50 was under 10 nM and the “BRM HiBit Degradation Maximum (%)” value was “A (“A” indicates maximum degradation ≥75%)”. For the same compound, in test [2], the Dmax was under 50%.
For `Cc1ncsc1-c1ccc([C@H](C)NC(=O)[C@@H]2C[C@@H](O)CN2C(=O)C(C(C)C)n2cc(N3C4CCC3CN(c3ccc5cc(-c6ccccc6O)nnc5c3)C4)nn2)cc1` (stereo partly drawn) [Compound 268, (2S,4R)-4-hydroxy-1-(2-(4-(3-(3-(2-hydroxyphenyl)cinnolin-7-yl)-3,8-diazabicyclo[3.2.1]octan-8-yl)-1H-1,2,3-triazol-1-yl)-3-methylbutanoyl)-N-((S)-1-(4-(4-methylthiazol-5-yl)phenyl)ethyl)pyrrolidine-2-carboxamide] the same measures were over 100 nM, “A (“A” indicates maximum degradation ≥75%)” and under 50%.
Take `Cc1ncsc1-c1ccc([C@H](C)NC(=O)[C@@H]2C[C@@H](O)CN2C(=O)[C@H](C(C)C)n2cc(-c3cc4cc(-c5ccccc5O)nnc4cc3C(F)F)nn2)cc1` [Compound 171, (2S,4R)-1-((S)-2-(4-(7-(difluoromethyl)-3-(2-hydroxyphenyl)cinnolin-6-yl)-1H-1,2,3-triazol-1-yl)-3-methylbutanoyl)-4-hydroxy-N-((S)-1-(4-(4-methylthiazol-5-yl)phenyl)ethyl)pyrrolidine-2-carboxamide]: in test [1], the DC50 was under 10 nM and the “BRM HiBit Degradation Maximum (%)” value is given as “A (“A” indicates maximum degradation ≥75%)”. In addition, in test [2], the DC50 is under 10 nM and the Dmax is over 75%.
As for `Cc1ncsc1-c1ccc([C@H](C)NC(=O)[C@@H]2C[C@@H](O)CN2C(=O)[C@@H](c2cc(N3CCCC4(CN(c5ccc6nnc(-c7ccccc7O)cc6c5)C4)C3)no2)C(C)C)cc1` [Compound 166, (2S,4R)-4-hydroxy-1-((R)-2-(3-(2-(3-(2-hydroxyphenyl)cinnolin-6-yl)-2,6-diazaspiro[3.5]nonan-6-yl)isoxazol-5-yl)-3-methylbutanoyl)-N-((S)-1-(4-(4-methylthiazol-5-yl)phenyl)ethyl)pyrrolidine-2-carboxamide], in test [1], the DC50 was under 10 nM and the “BRM HiBit Degradation Maximum (%)” value is “A (“A” indicates maximum degradation ≥75%)”. In addition, in test [2], the DC50 is over 10 nM and the Dmax is over 75%.
For the compound `Cc1ncsc1-c1ccc([C@H](C)NC(=O)[C@@H]2C[C@@H](O)CN2C(=O)[C@@H](c2cc(N3CC4(CC(Oc5ccc6nnc(-c7ccccc7O)cc6c5)C4)C3)no2)C(C)C)cc1` [Compound 184, (2S,4R)-4-hydroxy-1-((R)-2-(3-(6-((3-(2-hydroxyphenyl)cinnolin-6-yl)oxy)-2-azaspiro[3.3]heptan-2-yl)isoxazol-5-yl)-3-methylbutanoyl)-N-((S)-1-(4-(4-methylthiazol-5-yl)phenyl)ethyl)pyrrolidine-2-carboxamide], in test [1], the DC50 is under 10 nM and the “BRM HiBit Degradation Maximum (%)” value is listed as “A (“A” indicates maximum degradation ≥75%)”. Moreover, in test [2], the DC50 is over 10 nM and the Dmax was over 50%.
For `COc1cc2nnc(-c3ccccc3O)cc2cc1N1CC2(CN(c3cc([C@H](C(=O)N4C[C@H](O)C[C@H]4C(=O)N[C@@H](C)c4ccc(-c5scnc5C)cc4)C(C)C)on3)C2)C1` [Compound 158, (2S,4R)-4-hydroxy-1-((R)-2-(3-(6-(3-(2-hydroxyphenyl)-7-methoxycinnolin-6-yl)-2,6-diazaspiro[3.3]heptan-2-yl)isoxazol-5-yl)-3-methylbutanoyl)-N-((S)-1-(4-(4-methylthiazol-5-yl)phenyl)ethyl)pyrrolidine-2-carboxamide] the same measures were under 10 nM, “A (“A” indicates maximum degradation ≥75%)”, under 10 nM and over 75%.
Take `Cc1ncsc1-c1ccc([C@H](C)NC(=O)[C@@H]2C[C@@H](O)CN2C(=O)[C@@H](c2cc(N3CCC4(CC3)CC(Oc3ccc5nnc(-c6ccccc6O)cc5c3)C4)no2)C(C)C)cc1` (single isomer, unassigned) [Compound 185]: in test [1], the DC50 was under 10 nM and the “BRM HiBit Degradation Maximum (%)” value is on record as “A (“A” indicates maximum degradation ≥75%)”. In test [2], the DC50 was under 10 nM and the Dmax is over 75%.
On to `CC(C)[C@@H](C(=O)N1C[C@H](O)C[C@H]1C(=O)N[C@@H](C)c1ccc(F)cc1)c1cc(N2CC3(CN(c4ccc5cc(-c6ccccc6O)nnc5c4)C3)C2)no1` [Compound 89, (2S,4R)-N-((S)-1-(4-fluorophenyl)ethyl)-4-hydroxy-1-((R)-2-(3-(6-(3-(2-hydroxyphenyl)cinnolin-7-yl)-2,6-diazaspiro[3.3]heptan-2-yl)isoxazol-5-yl)-3-methylbutanoyl)pyrrolidine-2-carboxamide], for which, in test [1], the DC50 is under 10 nM and the “BRM HiBit Degradation Maximum (%)” value is reported as “A (“A” indicates maximum degradation ≥75%)”. Moreover, the Dmax in test [2] is under 50%.
Turning to `Cc1ncsc1-c1ccc([C@H](C)NC(=O)[C@@H]2C[C@@H](O)CN2C(=O)[C@@H](c2cc(N3CC4(CC(c5ccc6cc(-c7ccccc7O)nnc6c5)C4)C3)no2)C(C)C)cc1` [Compound 34], in test [1], the DC50 was under 10 nM and the “BRM HiBit Degradation Maximum (%)” value is “A (“A” indicates maximum degradation ≥75%)”. Further, in test [2], the DC50 is over 10 nM and the Dmax is over 75%.
`Cc1ncsc1-c1ccc([C@H](C)NC(=O)[C@@H]2C[C@@H](O)CN2C(=O)C(c2cc(N3CC4(CN(c5cc(C(F)F)c6cc(-c7ccccc7O)nnc6c5)C4)C3)no2)C(C)C)cc1` (stereo partly drawn) [Compound 191, (2S,4R)-1-(2-(3-(6-(5-(difluoromethyl)-3-(2-hydroxyphenyl)cinnolin-7-yl)-2,6-diazaspiro[3.3]heptan-2-yl)isoxazol-5-yl)-3-methylbutanoyl)-4-hydroxy-N-((S)-1-(4-(4-methylthiazol-5-yl)phenyl)ethyl)pyrrolidine-2-carboxamide]: in test [1], the DC50 was over 10 nM and the “BRM HiBit Degradation Maximum (%)” value was “A (“A” indicates maximum degradation ≥75%)”. Also, the Dmax in test [2] is under 50%.
Take `Cc1ncsc1-c1ccc([C@H](C)NC(=O)[C@@H]2C[C@@H](O)CN2C(=O)[C@H](C2CC2)n2cc(N3CC4(CN(c5ccc6cc(-c7ccccc7O)nnc6c5)C4)C3)nn2)cc1` (single isomer, unassigned) [Compound 210]: in test [1], the DC50 was under 10 nM and the “BRM HiBit Degradation Maximum (%)” value is on record as “A (“A” indicates maximum degradation ≥75%)”.
As to `Cc1ncsc1-c1ccc([C@H](C)NC(=O)[C@@H]2C[C@@H](O)CN2C(=O)[C@@H](c2cc(N3CC4(CN(c5ccc6cc(-c7ccccc7O)nnc6c5)C4)C3)no2)C(C)C)cc1` (single isomer, unassigned) [Compound 51], in test [1], the DC50 was under 10 nM and the “BRM HiBit Degradation Maximum (%)” value is “A (“A” indicates maximum degradation ≥75%)”.
